Results on 3 molecules are retold here after PMC9663686, “Proline, hydroxyproline, and pyrrolidone carboxylic acid derivatives as highly efficient but reversible transdermal permeation enhancers” (Scientific Reports, 2022).

For assay [1], the system named is HaCaT spontaneously immortalized human keratinocytes. In words: Neutral red (NR) uptake cell viability assay, HaCaT. Format: cell-based. To be noted: 48-h incubation, mean ± SEM, read-out: IC50, HaCaT cells, NR assay. An excerpt:
(§1) Next, the in vitro toxicities of the most promising enhancers Pro3 and Pro4, along with the parent Pro2, on spontaneously immortalized human keratinocytes (HaCaT) and Swiss albino mouse embryonic fibroblasts (3T3) were studied (Fig. 3). […] The cellular toxicities were further probed using the 3-(4,5-dimethylthiazol-2-yl)-2,5-diphenyltetrazolium bromide (MTT) uptake assay, based on the transformation of yellow MTT into purple formazan by mitochondrial reductases of living cells. The MTT assay also yielded toxicity values in tens of µM with trends to higher toxicity with a longer acyl chain length (thus also higher lipophilicity) of enhancers (Fig. 3).
(§2) Cell viability was determined via 3-(4,5-dimethylthiazol-2-yl)-2,5-diphenyltetrazolium bromide (MTT) and neutral red (NR) uptake assays after 48-h incubation with the enhancers (see Supplementary data for details).
(§3) Both cell lines were cultivated in Dulbecco’s modified Eagle’s medium (DMEM, Lonza, Basel, Switzerland) supplemented with 10% heat-inactivated fetal bovine serum (Merck, Darmstadt, Germany), 10 mM HEPES buffer (Merck, Darmstadt, Germany), and 1% penicillin/streptomycin solution (Lonza, Basel, Switzerland) in 75-cm^2 tissue culture flasks (TPP, Trasadingen, Switzerland) at 37°C in a humidified atmosphere of 5% CO2. Subconfluent cells were sub-cultured every 3-4 days.
For toxicity studies, the stock-solutions of studied compounds were prepared in dimethyl sulfoxide (DMSO). These stock samples were diluted to the required concentration by the cell culture medium immediately before adding them onto the cells. The amount of DMSO applied to the cells was kept under its intrinsic measurable toxicity limit (below 1 vol.%). […]
Another approach used for the toxicity assessment was the neutral red (NR) uptake assay. […] The plates were shaken at rt for 30 min, and the optical density of the soluble NR was measured at λ = 540 nm using a Tecan Infinite 200 M plate reader.
(§4) The viability of each experimental group was expressed as the percentage of the untreated controls incubated under the same conditions (100%).

Assay [2] deals with human skin. In words: Electrical impedance of human skin in vitro, reversibility. As to conditions: for impedance 1 h after the sample had been removed / impedance 4 h after the sample had been removed / impedance 8 h after the sample had been removed / impedance 12 h after the sample had been removed / impedance 24 h after the sample had been removed: 24-h application of 1% enhancer (1% Azone, 5% SDS) in 60% PG; for impedance 1 h after the sample had been removed / impedance 4 h after the sample had been removed / impedance 8 h after the sample had been removed / impedance 12 h after the sample had been removed / impedance 24 h after the sample had been removed / impedance before sample application (baseline): mean ± SEM; for fold decrease of skin impedance compared to baseline (range over enhancers and control): 24 h treatment, baseline 25–29 kΩ × cm^2; for recovery of skin impedance after sample removal: after 24-h application, followed 24 h after removal. The text has this:
(§5) We further investigated the direct effects of the selected enhancers on the skin barrier assessed by TEWL and the electrical impedance of human skin in vitro. TEWL is a method commonly used in dermatology[38] to study, for example, the irritant potential of chemicals, skin barrier recovery, or effect of topical formulations, and permeation enhancers[17],[21],[41]–[44]. Electrical impedance measures the opposition of the skin to alternating electrical current and is inversely proportional to the flux of ions. Thus, increased TEWL or decreased impedance indicates a barrier impairment[45],[46]. Electrical impedance or conductance measurements have been used to screen new enhancers or assess the irritation potential of compounds[13],[15],[17],[21],[32],[44],[47]–[50]. Both TEWL and impedance can distinguish between reversible and irreversible effects of enhancers on skin permeability[17],[21],[40],[44],[51].
(§6) Human skin was mounted in Franz diffusion cells in the same way as for the permeation studies. After 1-h equilibration, basal TEWL and impedance values were recorded. Then, 1% enhancer in 60% PG, 60% PG as a negative control, 1% Azone in 60% PG, or 5% SDS in 60% PG as positive (irreversible) controls was applied on the skin (100 µl/cm^2) for 24 h. The residual sample was washed with PBS and gently blotted dry. At 1, 4, 8, 12, and 24 h after sample removal, TEWL, and impedance values were recorded. TEWL was measured using AquaFlux AF 200 (Biox Systems Ltd, London, UK), employing the condenser-chamber measurement method at 26 ± 1.0 °C and 43 ± 3% relative air humidity. Electrical impedance was measured by LCR meter 4080 (Conrad electronic, Hirschau, Germany, measuring range 20 Ω–10 MΩ, error at kΩ values < 0.5%) operated in parallel mode with an alternating frequency of 120 Hz, which was also used in our previous work[21],[44].
(§7) Samples were removed from the skin after 24 h, and TEWL and impedance values were recorded in predetermined time intervals (1, 4, 8, 12, and 24 h after sample removal). Data are presented as the means ± SEM; n ≥ 3. * statistically significant difference compared to the baseline value before the sample application at p < 0.05. ^+ statistically significant compared to the value 1 h after the sample removal at p < 0.05.^ ≠ statistically significant compared to the control (60% PG without enhancer) at the same time point, at p < 0.05.

The subject of assay [3] is HaCaT spontaneously immortalized human keratinocytes. In words: MTT cell viability assay, HaCaT. Format: cell-based. To be noted: 48-h incubation, mean ± SEM, read-out: IC50, HaCaT cells, MTT assay.
Source text: as §1, §2, §3
For toxicity studies, the stock-solutions of studied compounds were prepared in dimethyl sulfoxide (DMSO). […]
After 48-h incubation with the studied enhancer, cell viability was determined via 3-(4,5-dimethylthiazol-2-yl)-2,5-diphenyltetrazolium bromide (MTT) uptake assay based on the transformation of yellow MTT into purple formazan by mitochondrial reductase activity of living cells. […] Afterward, the cell viability was assessed by optical density measurement using a Tecan Infinite 200 M plate reader (Tecan, Grödig, Austria) at λ = 570 nm.
as §4
In general terms: Tetrazolium assays rely on reduction of a dye to a coloured formazan, in cell work by metabolically active cells.

Assay [4] deals with human skin. In words: Transepidermal water loss (TEWL) of human skin in vitro, reversibility. To be noted: for TEWL 1 h after the sample had been removed / TEWL 4 h after the sample had been removed / TEWL 8 h after the sample had been removed / TEWL 12 h after the sample had been removed / TEWL 24 h after the sample had been removed: 24-h application of 1% enhancer (1% Azone, 5% SDS) in 60% PG; for TEWL 1 h after the sample had been removed / TEWL 4 h after the sample had been removed / TEWL 8 h after the sample had been removed / TEWL 12 h after the sample had been removed / TEWL 24 h after the sample had been removed / TEWL before sample application (baseline): mean ± SEM; for TEWL values after 24-h treatment (range over the three enhancers): 1% in 60% PG, baseline around 27 g/m^2/h; for time after enhancer removal for TEWL to decline to values similar to baseline: after 24-h application of 1% enhancer in 60% PG.
Source text: as §5, §6, §7

SMILES strings stand for the structures. Marks after values point to notes of the source that are not given here. Where only a bound is given, the exact number is not on record here.

For `CCCCCCCCCCCCOC(=O)C1CCCN1C(C)=O` (stereo not drawn) [Pro2, N-acetyl proline dodecyl ester], the IC50 (in general, the midpoint of a concentration-inhibition curve) in assay [1] is 98.1 ± 4.49 µM. For the same molecule, in assay [2], the “impedance 1 h after the sample had been removed” value (from here on “impedance 1 h”) is 2.8 ± 0.1* kΩ×cm^2, the “impedance 4 h after the sample had been removed” value (from here on “impedance 4 h”) is on record as 6.0 ± 1.1*^≠ kΩ×cm^2, the “impedance 8 h after the sample had been removed” value (from here on “impedance 8 h”) is 8.1 ± 1.7*^≠ kΩ×cm^2 and the “impedance 12 h after the sample had been removed” value (from here on “impedance 12 h”) is given as 8.6 ± 2.0*^≠ kΩ×cm^2. Besides, in assay [2], the “impedance 24 h after the sample had been removed” value (shortened to “impedance 24 h”) was 9.4 ± 2.6*^≠+ kΩ×cm^2; the “fold decrease of skin impedance compared to baseline (range over enhancers and control)” value (“fold decrease of skin impedance” below) is recorded as 5–21 times; the “recovery of skin impedance after sample removal” value (shortened to “recovery of skin impedance”) is “recovered incompletely”; the “impedance before sample application (baseline)” value is reported as 25.2 ± 2.1 kΩ×cm^2. In addition, in assay [3], the IC50 is 53.2 ± 3.19 µM. Also, in assay [4], the “TEWL 1 h after the sample had been removed” value (from here on “TEWL 1 h”) was 65.4 ± 1.5*^≠ g/m^2/h, the “TEWL 4 h after the sample had been removed” value (“TEWL 4 h” for short) is reported as 56.0 ± 1.3*^≠ g/m^2/h, the “TEWL 8 h after the sample had been removed” value (“TEWL 8 h” for short) was 45.9 ± 1.5*^≠+ g/m^2/h and the “TEWL 12 h after the sample had been removed” value (“TEWL 12 h” for short) is listed as 42.5 ± 2.5*^≠+ g/m^2/h. In assay [4], the “TEWL 24 h after the sample had been removed” value (from here on “TEWL 24 h”) is recorded as 41.8 ± 1.0*^≠+ g/m^2/h, the “TEWL values after 24-h treatment (range over the three enhancers)” value is on record as 50–65 g/m^2/h and the “TEWL before sample application (baseline)” value is recorded as 25.0 ± 3.0 g/m^2/h. The “reversibility of TEWL increase” value in assay [4] (after 24-h application, followed 24 h after removal) was “only partly reversible within 24 h”.
Take `CCCCCCCCCCCCOC(=O)C1CCCN1C(=O)CC` (stereo not drawn) [Pro3]: in assay [1], the IC50 amounted to 74.4 ± 1.75 µM. Moreover, in assay [2], the “impedance 1 h” value is reported as 1.4 ± 0.8* kΩ×cm^2, the “impedance 4 h” value was 7.9 ± 0.4*^≠+ kΩ×cm^2, the “impedance 8 h” value is reported as 13.1 ± 0.7*^≠+ kΩ×cm^2 and the “impedance 12 h” value is 15.8 ± 1.0*^≠+ kΩ×cm^2. Also, in assay [2], the “impedance 24 h” value is given as 18.6 ± 0.9*^≠+ kΩ×cm^2; the “fold decrease of skin impedance” value is on record as 5–21 times; the “recovery of skin impedance” value is reported as “recovered incompletely”; the “impedance before sample application (baseline)” value amounted to 28.9 ± 1.7 kΩ×cm^2. Further, the IC50 in assay [3] was determined as 32.7 ± 2.48 µM. In assay [4], the “TEWL 1 h” value is 59.4 ± 5.6*^≠ g/m^2/h, the “TEWL 4 h” value is 47.1 ± 1.7*^≠+ g/m^2/h, the “TEWL 8 h” value is 36.5 ± 1.1^+ g/m^2/h and the “TEWL 12 h” value is reported as 30.2 ± 2.2^+ g/m^2/h. In assay [4], the “TEWL 24 h” value was 27.4 ± 2.2^+ g/m^2/h, the “TEWL values after 24-h treatment (range over the three enhancers)” value was 50–65 g/m^2/h, the “time after enhancer removal for TEWL to decline to values similar to baseline” value is recorded as at most 8 h and the “TEWL before sample application (baseline)” value was 27.5 ± 6.3 g/m^2/h.
For `CCCCCCCCCCCCOC(=O)C1CCCN1C(=O)CCC` (stereo not drawn) [Pro4], the concentration for half-maximal inhibition (IC50) in assay [1] was found to be 54.6 ± 1.11 µM. In assay [2], the “impedance 1 h” value is 3.8 ± 0.8* kΩ×cm^2, the “impedance 4 h” value is on record as 11.5 ± 1.7*^+ kΩ×cm^2, the “impedance 8 h” value is 18.3 ± 2.5*^+ kΩ×cm^2 and the “impedance 12 h” value is listed as 21.2 ± 2.5*^+ kΩ×cm^2. For the same molecule, in assay [2], the “impedance 24 h” value was 23.8 ± 2.9^+ kΩ×cm^2; the “fold decrease of skin impedance” value was 5–21 times; the “recovery of skin impedance” value was “recovered to values similar to baseline within 24 h”; the “impedance before sample application (baseline)” value is recorded as 28.9 ± 2.6 kΩ×cm^2. Besides, the concentration for half-maximal inhibition (IC50) in assay [3] was 33.2 ± 2.02 µM. For the same molecule, in assay [4], the “TEWL 1 h” value is 49.9 ± 5.2*^≠ g/m^2/h, the “TEWL 4 h” value was 39.4 ± 2.5*^+ g/m^2/h, the “TEWL 8 h” value is 30.5 ± 1.3^+ g/m^2/h and the “TEWL 12 h” value is reported as 26.3 ± 1.8^+ g/m^2/h. In addition, in assay [4], the “TEWL 24 h” value is listed as 25.0 ± 2.8^+ g/m^2/h, the “TEWL values after 24-h treatment (range over the three enhancers)” value is listed as 50–65 g/m^2/h, the “time after enhancer removal for TEWL to decline to values similar to baseline” value is on record as at most 8 h and the “TEWL before sample application (baseline)” value is given as 27.3 ± 4.1 g/m^2/h.
